Reference: patent US20240025907A1, “QUINAZOLINE PAN-KRas INHIBITORS” (Mirati Therapeutics, Inc., priority 2022, published 2024)

Columns and labels:
KRas^G12D = target: T1, KRas^G12D (Homo sapiens, UniProt P01116, G12D); assay: KRas TR-FRET tracer displacement binding assay, G12D; conditions: 60-minute incubation
T1 construct: Biotinylated KRas (corresponding to amino acids 1-169, produced at Accelegan Inc.); biotin (biotinylated); purchased Accelegan Inc
How it was run: (§1)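 TR-FRET displacement: biotinylated KRas (aa 1-169) incubated with Cy5-labelled tracer, terbium streptavidin and compound (1% DMSO final) in 50 mM HEPES pH 7.5, 5 mM MgCl2, 0.005% Tween-20, 1 mM DTT. Read after 60-minute room-temperature incubation.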

KRas^G12V = target: T2, KRas^G12V (Homo sapiens, UniProt P01116, G12V); assay: KRas TR-FRET tracer displacement binding assay, G12V; conditions: 60-minute incubation
T2 construct: Biotinylated KRas (corresponding to amino acids 1-169, produced at Accelegan Inc.); biotin (biotinylated); purchased Accelegan Inc
How it was run: as §1

KRas^G12R = target: T3, KRas^G12R (Homo sapiens, UniProt P01116, G12R); assay: KRas TR-FRET tracer displacement binding assay, G12R; conditions: 60-minute incubation
T3 construct: Biotinylated KRas (corresponding to amino acids 1-169, produced at Accelegan Inc.); biotin (biotinylated); purchased Accelegan Inc
Protocol: This Example illustrates that exemplary compounds of the present invention bind to KRas and are capable of displacing a labeled tracer ligand occupying the KRas binding site. KRas^WT, KRas^G12A, KRas^G12C, KRas^G12D, KRas^G12R, KRas^G12S, KRas^G12V, KRas^G13D, or KRas^Q61H was used in the assay.
The ability of a compound to bind to KRas was measured using a TR-FRET displacement assay. Biotinylated KRas (corresponding to amino acids 1-169, produced at Accelegan Inc.) was incubated with custom made Cy5 labelled tracer, terbium streptavidin (Cisbio Inc.) and compound (1% DMSO final) in buffer (50 mM HEPES, pH 7.5, 5 mM MgCl2, 0.005% Tween-20 and 1 mM DTT). After a 60-minute incubation at room temperature, the reaction was measured using a BMG LABTECH CLARIO star Plus via TR-FRET. […] The POC values were fit to a 4-parameter IC50 equation and the IC50 value reported in Table 1 (selected Examples 172-222).

[1] = tested on: KRas-mediated Phosphorylation of ERK in AsPC-1 cells; assay: Cisbio HTRF pERK assay, AsPC-1 cells; type: cell-based; conditions: Homo sapiens, ASPC1, 3 h, 3 hrs compound, read-out: Inhibition (HTRF IC50 nM) of KRas-mediated Phosphorylation of ERK, AsPC-1
[2] = tested on: KRas-mediated Phosphorylation of ERK in H727 cells; assay: Cisbio HTRF pERK assay, H727 cells; type: cell-based; conditions: Homo sapiens, NCI-H727, 3 h, 3 hrs compound, read-out: Inhibition (HTRF IC50 nM) of KRas-mediated Phosphorylation of ERK, H727
[3] = tested on: KRas-mediated Phosphorylation of ERK in HCT116 cells; assay: Cisbio HTRF pERK assay, HCT116 cells; type: cell-based; conditions: Homo sapiens, HCT-116, 3 h, HCT116 cells, 3 hrs compound; read-out: Inhibition (HTRF IC50 nM) of KRas-mediated Phosphorylation of ERK, HCT116
[4] = tested on: KRas-mediated Phosphorylation of ERK in A549 cells; assay: Cisbio HTRF pERK assay, A549 cells; type: cell-based; conditions: Homo sapiens, A549, 3 h, A549 cells, 3 hrs compound; read-out: Inhibition (HTRF IC50 nM) of KRas-mediated Phosphorylation of ERK, A549
[5] = tested on: KRas-mediated Phosphorylation of ERK in H460 cells; assay: Cisbio HTRF pERK assay, H460 cells; type: cell-based; conditions: Homo sapiens, NCI-H460, 3 h, H460 cells, 3 hrs compound; read-out: Inhibition (HTRF IC50 nM) of KRas-mediated Phosphorylation of ERK, H460
[6] = tested on: KRas-mediated Phosphorylation of ERK in H358 cells; assay: Cisbio HTRF pERK assay, H358 cells; type: cell-based; conditions: Homo sapiens, NCI-H358, 3 h, H358 cells, 3 hrs compound; read-out: Inhibition (HTRF IC50 nM) of KRas-mediated Phosphorylation of ERK, H358
KRas^WT = target: T4, KRas^WT (Homo sapiens, UniProt P01116); assay: KRas TR-FRET tracer displacement binding assay, WT; conditions: 60-minute incubation
T4 construct: Biotinylated KRas (corresponding to amino acids 1-169, produced at Accelegan Inc.); biotin (biotinylated); purchased Accelegan Inc
How it was run: as §1

KRas^G12C = target: T5, KRas^G12C (Homo sapiens, UniProt P01116, G12C); assay: KRas TR-FRET tracer displacement binding assay, G12C; conditions: 60-minute incubation
T5 construct: Biotinylated KRas (corresponding to amino acids 1-169, produced at Accelegan Inc.); biotin (biotinylated); purchased Accelegan Inc
How it was run: as §1

KRas^G12S = target: T6, KRas^G12S (Homo sapiens, UniProt P01116, G12S); assay: KRas TR-FRET tracer displacement binding assay, G12S; conditions: 60-minute incubation
T6 construct: Biotinylated KRas (corresponding to amino acids 1-169, produced at Accelegan Inc.); biotin (biotinylated); purchased Accelegan Inc
How it was run: as §1

[7] = tested on: KRas-mediated Phosphorylation of ERK in H2009 cells; assay: Cisbio HTRF pERK assay, H2009 cells; type: cell-based; conditions: Homo sapiens, NCI-H2009, H2009 cells; read-out: Inhibition (HTRF IC50 nM) of KRas-mediated Phosphorylation of ERK, H2009
[8] = tested on: KRas-mediated Phosphorylation of ERK in PSN1 cells; assay: Cisbio HTRF pERK assay, PSN1 cells; type: cell-based; conditions: Homo sapiens, PSN1, 3 h, 3 hour compound, read-out: Inhibition (HTRF IC50 nM) of KRas-mediated Phosphorylation of ERK, PSN1
Protocol: (§2) Inhibition of KRas Phosphorylation of ERK (HTRF) by Exemplary Compounds of Formula (I) • Cisbio HTRF Advanced pERK Assay Catalog #64AERPEH • Cell: MKN1, PSN1 • Procedure: • Day 1: Seed 6,000 cells/well −25 μl/well in 384-well white solid bottom plate; RPM1_10% FBS.

[9] = tested on: KRas-mediated Phosphorylation of ERK in MKN1 cells; assay: Cisbio HTRF pERK assay, MKN1 cells; type: cell-based; conditions: Homo sapiens, MKN-1, 3 hour compound, read-out: Inhibition (HTRF IC50 nM) of KRas-mediated Phosphorylation of ERK, MKN1
Protocol: as §2

T2 sequence (P01116 1-169 isoform P01116-2 G12V): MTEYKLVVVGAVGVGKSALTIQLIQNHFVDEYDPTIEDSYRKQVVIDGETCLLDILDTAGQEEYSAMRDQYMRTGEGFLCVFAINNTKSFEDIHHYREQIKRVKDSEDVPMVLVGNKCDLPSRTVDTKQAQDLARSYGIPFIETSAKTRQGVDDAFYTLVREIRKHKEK
T1 sequence (P01116 1-169 isoform P01116-2 G12D): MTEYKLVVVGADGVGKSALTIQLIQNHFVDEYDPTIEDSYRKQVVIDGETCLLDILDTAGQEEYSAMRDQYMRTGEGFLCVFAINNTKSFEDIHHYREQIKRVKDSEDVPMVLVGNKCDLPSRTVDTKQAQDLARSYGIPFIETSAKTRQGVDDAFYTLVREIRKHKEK
T3 sequence (P01116 1-169 isoform P01116-2 G12R): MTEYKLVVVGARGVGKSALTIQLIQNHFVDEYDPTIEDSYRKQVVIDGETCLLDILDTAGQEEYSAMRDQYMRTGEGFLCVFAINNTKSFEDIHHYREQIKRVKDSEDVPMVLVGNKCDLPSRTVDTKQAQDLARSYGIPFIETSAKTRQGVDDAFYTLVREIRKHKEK
T4 sequence (P01116 1-169 isoform P01116-2): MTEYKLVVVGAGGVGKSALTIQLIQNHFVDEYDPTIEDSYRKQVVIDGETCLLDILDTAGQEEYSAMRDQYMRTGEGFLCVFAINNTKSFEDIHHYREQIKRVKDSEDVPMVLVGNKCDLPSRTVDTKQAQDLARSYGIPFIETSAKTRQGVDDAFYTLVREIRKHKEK
T6 sequence (P01116 1-169 isoform P01116-2 G12S): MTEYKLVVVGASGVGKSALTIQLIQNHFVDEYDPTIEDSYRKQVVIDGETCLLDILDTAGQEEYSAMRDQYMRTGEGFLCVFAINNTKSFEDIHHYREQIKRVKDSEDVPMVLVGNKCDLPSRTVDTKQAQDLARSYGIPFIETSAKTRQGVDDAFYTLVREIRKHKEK
T5 sequence (P01116 1-169 isoform P01116-2 G12C): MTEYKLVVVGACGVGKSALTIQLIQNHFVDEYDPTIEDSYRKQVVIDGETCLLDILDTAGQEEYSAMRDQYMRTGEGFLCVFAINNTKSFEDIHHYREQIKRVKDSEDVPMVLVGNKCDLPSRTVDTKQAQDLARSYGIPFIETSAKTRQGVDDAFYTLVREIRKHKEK

| Structure (SMILES) | IC50 (KRas^G12D) [nM] | IC50 (KRas^G12V) [nM] | IC50 (KRas^G12R) [nM] | IC50 [1] [nM] | IC50 [2] [nM] | IC50 [3] [nM] | IC50 [4] [nM] | IC50 [5] [nM] | IC50 [6] [nM] | IC50 (KRas^WT) [nM] | IC50 (KRas^G12C) [nM] | IC50 (KRas^G12S) [nM] | IC50 [7] [nM] | IC50 [8] [nM] | IC50 [9] [nM] |
| --- | --- | --- | --- | --- | --- | --- | --- | --- | --- | --- | --- | --- | --- | --- | --- |
| CCc1c(F)ccc2cc(O)cc(-c3c(F)cc4c(NCc5c[nH]c6ncccc56)nc(OC[C@@]56CCCN5C[C@H](F)C6)nc4c3F)c12 [Example 174, 4-(4-(((1H-pyrrolo[2,3-b]pyridin-3-yl)methyl)amino)-6,8-difluoro-2-(((2R,7aS)-2-fluorotetrahydro-1H-pyrrolizin-7a(5H)-yl)methoxy)quinazolin-7-yl)-5-ethyl-6-fluoronaphthalen-2-ol] | 285 | 9 | 9 | 4020 | 694 | 2260 | 734 | 968 | 324 | – | – | – | – | – | – |
| CCc1c(F)ccc2cc(O)cc(-c3c(F)cc4c(N5CC(c6ccncc6)C5)nc(OC[C@@]56CCCN5C[C@H](F)C6)nc4c3F)c12 [Example 175, 4-(6,8-difluoro-2-(((2R,7aS)-2-fluorotetrahydro-1H-pyrrolizin-7a(5H)-yl)methoxy)-4-(3-(pyridin-4-yl)azetidin-1-yl)quinazolin-7-yl)-5-ethyl-6-fluoronaphthalen-2-ol] | 313 | 12 | 16 | 1280 | 422 | 1640 | 490 | 445 | 185 | – | – | – | – | – | – |
| C[C@@]1(O)COCCN(c2nc(OC[C@@]34CCCN3C[C@H](F)C4)nc3c(F)c(-c4ccc(F)c5sc(N)c(C#N)c45)c(F)cc23)C1 [Example 216, 2-amino-4-(6,8-difluoro-2-(((2R,7aS)-2-fluorotetrahydro-1H-pyrrolizin-7a(5H)-yl)methoxy)-4-((S)-6-hydroxy-6-methyl-1,4-oxazepan-4-yl)quinazolin-7-yl)-7-fluorobenzo[b]thiophene-3-carbonitrile] | 4 | 4 | – | 175 | 131 | 346 | 325 | 118 | 26 | 6 | 6 | 5 | 18 | 2440 | 12 |
| COc1nc(OC[C@@]23CCCN2C[C@H](F)C3)nc2c(F)c(-c3ccc(F)c4sc(N)c(C#N)c34)c(Cl)cc12 [Example 220, 2-amino-4-(6-chloro-8-fluoro-2-(((2R,7aS)-2-fluorotetrahydro-1H-pyrrolizin-7a(5H)-yl)methoxy)-4-methoxyquinazolin-7-yl)-7-fluorobenzo[b]thiophene-3-carbonitrile] | – | – | – | 202 | 123 | 591 | 261 | 134 | 63 | – | – | – | 49 | 5870 | 45 |

More lines, in order of falling IC50 [1], values ahead:

| IC50 (KRas^G12D) [nM] | IC50 (KRas^G12V) [nM] | IC50 (KRas^G12R) [nM] | IC50 [1] [nM] | IC50 [2] [nM] | IC50 [3] [nM] | IC50 [4] [nM] | IC50 [5] [nM] | IC50 [6] [nM] | IC50 (KRas^WT) [nM] | IC50 (KRas^G12C) [nM] | IC50 (KRas^G12S) [nM] | IC50 [7] [nM] | IC50 [8] [nM] | IC50 [9] [nM] | Structure (SMILES) |
| --- | --- | --- | --- | --- | --- | --- | --- | --- | --- | --- | --- | --- | --- | --- | --- |
| – | – | – | 2560 | 1440 | 1110 | 1640 | 911 | 207 | – | – | – | 273 | > 10000 | 84 | N#Cc1c(N)sc2c(F)ccc(-c3c(Cl)cc4c(NCC5CS(=O)(=O)C5)nc(OC[C@@]56CCCN5C[C@H](F)C6)nc4c3F)c12 [Example 222, 2-amino-4-(6-chloro-4-(((1,1-dioxidothietan-3-yl)methyl)amino)-8-fluoro-2-(((2R,7aS)-2-fluorotetrahydro-1H-pyrrolizin-7a(5H)-yl)methoxy)quinazolin-7-yl)-7-fluorobenzo[b]thiophene-3-carbonitrile] |
| – | – | – | 962 | 1240 | 573 | 635 | 394 | 154 | – | – | – | 145 | 6040 | 86 | N#Cc1c(N)sc2c(F)ccc(-c3c(Cl)cc4c(N5CC(CO)C5)nc(OC[C@@]56CCCN5C[C@H](F)C6)nc4c3F)c12 [Example 221, 2-amino-4-(6-chloro-8-fluoro-2-(((2R,7aS)-2-fluorotetrahydro-1H-pyrrolizin-7a(5H)-yl)methoxy)-4-(3-(hydroxymethyl)azetidin-1-yl)quinazolin-7-yl)-7-fluorobenzo[b]thiophene-3-carbonitrile] |
| < 2 | < 2 | – | 25 | 35 | 392 | 393 | 223 | 21 | < 2 | 4 | < 2 | 34 | 3820 | 13 | CN(C)C(=O)c1cc2n(n1)CCCN(c1nc(OC[C@@]34CCCN3C[C@H](F)C4)nc3c(F)c(-c4ccc(F)c5sc(N)c(C#N)c45)c(F)cc13)C2 [Example 215, 5-(7-(2-amino-3-cyano-7-fluorobenzo[b]thiophen-4-yl)-6,8-difluoro-2-(((2R,7aS)-2-fluorotetrahydro-1H-pyrrolizin-7a(5H)-yl)methoxy)quinazolin-4-yl)-N,N-dimethyl-5,6,7,8-tetrahydro-4H-pyrazolo[1,5-a][1,4]diazepine-2-carboxamide] |
